Results taken from ChEMBL document CHEMBL4334497, “Synthesis and Pharmacological Characterization of 2-(2,6-Dichlorophenyl)-1-((1S,3R)-5-(3-hydroxy-3-methylbutyl)-3-(hydroxymethyl)-1-methyl-3,4-dihydroisoquinolin-2(1H)-yl)ethan-1-one (LY3154207), a Potent, Subtype Selective, and Orally Available Positive Allosteric Modulator of the Human Dopamine …” (J Med Chem, 2019).
In brackets after ≈: the same amount, converted by molar mass.

How the values were obtained:
[1] = Solubility in fasted state simulated intestinal fluids; assay type: physicochemical
[2] = Solubility in fed state simulated intestinal fluids; assay type: physicochemical

Row | solubility ([1]; simulated gi fluid) | solubility ([2]; simulated gi fluid) | solubility ([1]; fasted state simulated intestinal fluid, read-out: solubility) | solubility ([2]; fed state simulated intestinal fluid, read-out: solubility) | SMILES
1 | 2 µg/mL (≈ 4.44 µM) | 2 µg/mL (≈ 4.44 µM) |  |  | C[C@H]1c2cccc(CCC(C)(C)O)c2C[C@H](CO)N1C(=O)Cc1c(Cl)cccc1Cl (stereo in doubt; form 2) [MEVIDALEN]
2 |  |  | 206 µg/mL | 697 µg/mL | C[C@H]1c2cccc(CCC(C)(C)O)c2C[C@H](CO)N1C(=O)Cc1c(Cl)cccc1Cl.O=C(O)c1ccc(O)cc1 [MEVIDALEN HYDROXYBENZOATE]
